Values after ≈ are worked out from the molar mass of the structure shown. Like-named read-outs stand apart in the source and are kept apart here.
Assays:
Escherichia coli = assay: in vitro tube dilution test (MIC); format: cell-based
Excerpt: (§1) Our compound, 1-(2-hydroxyethyl)-3-nitro-4-pyrazolecarboxamide, has been extensively tested in vitro to determine the range of microorganisms against which it is active. The table of data below reports the minimum inhibitory concentration (MIC) at which the compound is effective in controlling a variety of microorganisms in a standard tube dilution test system. The MIC is reported as micrograms of compound per milliliter.
(§2) Other compounds of our invention have also been tested in the tube dilution test and shown to have in vitro activity against a number of microorganisms. The table below reports tests of a number of exemplary compounds against exemplary microorganisms. The compounds are identified by their numbers in the listing above. The data are reported as the MIC in micrograms per milliliter against the named exemplary microorganisms.

Mycoplasma gallisepticum = assay: in vitro tube dilution test (MIC); format: cell-based; settings: Mycoplasmoides gallisepticum
Excerpt: as §1, §2

Pasteurella multocida = assay: in vitro tube dilution test (MIC); format: cell-based
Excerpt: as §1
(§3) The other preferred compounds of our invention have also been thoroughly tested in the in vitro tube dilution test.
as §2

Salmonella dublin = assay: in vitro tube dilution test (MIC); format: cell-based; settings: Salmonella enterica
Excerpt: as §3, §2

[1] = system: Staphylococcus aureus sp. 1130; assay: in vitro tube dilution test (MIC); format: cell-based
Excerpt: as §3, §2

Vibrio coli 3811 = assay: in vitro tube dilution test (MIC); format: cell-based; settings: Campylobacter coli
Excerpt: as §3, §2

Streptococcus sp. 80 = assay: in vitro tube dilution test (MIC); format: cell-based
Excerpt: as §2

Salmonella typhimurium = assay: Salmonellosis in chickens, single injection to day-old chicks; format: in vivo; settings: for responders at 60 mg/kg: Salmonella enterica, TYPHIMURIUM, 168 h, single injection of 60 mg./kg., seven days, read-out: Survival (converted)
Procedure: A number of our 3-nitropyrazoles have been tested against an induced infection of Salmonella typhimurium in day-old chicks. The test was conducted by administering a single injection of 60 mg./kg. of the compounds to each of five chicks. The following day, the chicks were challenged by the subcutaneous injection of a dispersion of S. typhimurium organisms sufficient to kill most or all of the untreated control chicks.
Some of the compounds were tested more than once, in which instances the data are reported as the total survivors from the multiple treatment groups. Untreated, challenged control groups of chicks were tested together with each batch of groups of chicks to which test compounds were administered. Since the mortality of the untreated control chicks varied somewhat from one group of tests to another, results of the untreated control groups are reported below with each test.

[2] = Mycoplasma gallisepticum, tube dilution, read-out: MIC
[3] = Salmonella dublin, tube dilution, read-out: MIC
[4] = Staphylococcus aureus sp. 1130, tube dilution, read-out: MIC
[5] = Vibrio coli 3811, tube dilution, read-out: MIC
[6] = Streptococcus sp. 80, tube dilution, read-out: MIC

Structure (SMILES) | MIC (Escherichia coli; tube dilution, read-out: MIC) | MIC (Mycoplasma gallisepticum; [2]) | MIC (Pasteurella multocida; tube dilution, read-out: MIC) | MIC (Salmonella dublin; [3]) | MIC [1, 4] | MIC (Vibrio coli 3811; [5]) | MIC (Streptococcus sp. 80; [6]) | further results
CCSCCn1cc(C#N)c([N+](=O)[O-])n1 [Compound 72, 1-(2-ethylthioethyl)-3-nitro-4-pyrazolecarbonitrile] | > 50 µg/mL | > 50 µg/mL | > 50 µg/mL | > 50 µg/mL | > 50 µg/mL | > 50 µg/mL | > 50 µg/mL | –
N#CCCn1cc(C#N)c([N+](=O)[O-])n1 [Compound 73, 4-cyano-3-nitro-1-pyrazolepropionitrile] | 50 µg/mL (≈ 262 µM) | 50 µg/mL (≈ 262 µM) | 12.5 µg/mL (≈ 65.4 µM) | 50 µg/mL (≈ 262 µM) | 50 µg/mL (≈ 262 µM) | 25 µg/mL (≈ 131 µM) | 50 µg/mL (≈ 262 µM) | –
Cn1cc(C(=O)NN=Cc2ccc([N+](=O)[O-])o2)c([N+](=O)[O-])n1 [Compound 74, 1-methyl-3-nitro-4-pyrazolecarboxylic acid, 5-nitrofurfurylidene hydrazide] | – | – | – | – | – | – | – | MIC (Escherichia coli): 6.25 µg/mL (≈ 20.3 µM); MIC (Mycoplasma gallisepticum): 0.78 µg/mL (≈ 2.53 µM); MIC (Salmonella dublin): 12.5 µg/mL (≈ 40.6 µM); MIC ([1]; Staphylococcus aureus, SP.1130): 1.56 µg/mL (≈ 5.06 µM); MIC (Vibrio coli 3811; 3811): 0.39 µg/mL (≈ 1.27 µM); MIC (Streptococcus sp. 80; Streptococcus, SP.80): 50 µg/mL (≈ 162 µM)
Cc1ccc(C(=O)OCCn2cc(C(N)=O)c([N+](=O)[O-])n2)cc1 [Compound 76, [2-(4-carbamoyl-3-nitropyrazol-1-yl)ethyl] p-toluate] | – | – | – | – | – | – | – | responders at 60 mg/kg (Salmonella typhimurium): 100%
CCOC(=O)OCCn1cc(C(N)=O)c([N+](=O)[O-])n1 [Compound 78, [2-(4-carbamoyl-3-nitropyrazol-1-yl)ethyl] ethyl carbonate] | – | – | – | – | – | – | – | responders at 60 mg/kg (Salmonella typhimurium): 40%
CCS(=O)(=O)CCn1cc(C#N)c([N+](=O)[O-])n1 [Compound 86, 1-(2-ethylsulfonyethyl)-3-nitro-4-pyrazolecarbonitrile] | > 50 µg/mL | 50 µg/mL (≈ 194 µM) | > 50 µg/mL | > 50 µg/mL | > 50 µg/mL | 25 µg/mL (≈ 96.8 µM) | > 50 µg/mL | –
N#Cc1cn(CCBr)nc1[N+](=O)[O-] [Compound 91, 1-(2-bromoethyl)-3-nitro-4-pyrazolecarbonitrile] | > 50 µg/mL | > 50 µg/mL | 12.5 µg/mL (≈ 51 µM) | > 50 µg/mL | > 50 µg/mL | 12.5 µg/mL (≈ 51 µM) | 50 µg/mL (≈ 204 µM) | –
N#Cc1cn(-c2ccc([N+](=O)[O-])cc2)nc1[N+](=O)[O-] [Compound 92, 3-nitro-1-(4-nitrophenyl)-4-pyrazolecarbonitrile] | – | – | – | – | – | – | – | MIC (Escherichia coli): > 50 µg/mL; MIC (Mycoplasma gallisepticum): 12.5 µg/mL (≈ 48.2 µM); MIC (Pasteurella multocida): 0.78 µg/mL (≈ 3.01 µM); MIC (Salmonella dublin): > 50 µg/mL; MIC ([1]; Staphylococcus aureus, SP.1130): 6.25 µg/mL (≈ 24.1 µM); MIC (Vibrio coli 3811; 3811): 6.25 µg/mL (≈ 24.1 µM); MIC (Streptococcus sp. 80; Streptococcus, SP.80): 50 µg/mL (≈ 193 µM)
O=C(NN=Cc1ccc([N+](=O)[O-])o1)c1cn(CCO)nc1[N+](=O)[O-] [Compound 94, 1-(2-hydroxyethyl)-3-nitropyrazole-4-carboxylic acid, 5-nitrofurfurylidene hydrazide] | – | – | – | – | – | – | – | MIC (Escherichia coli): 25 µg/mL (≈ 73.9 µM); MIC (Mycoplasma gallisepticum): 6.25 µg/mL (≈ 18.5 µM); MIC (Pasteurella multocida): < 1.56 µg/mL; MIC (Salmonella dublin): 25 µg/mL (≈ 73.9 µM); MIC ([1]; Staphylococcus aureus, SP.1130): 6.25 µg/mL (≈ 18.5 µM); MIC (Vibrio coli 3811; 3811): < 1.56 µg/mL; MIC (Streptococcus sp. 80; Streptococcus, SP.80): 25 µg/mL (≈ 73.9 µM)
NC(=O)c1cn(-c2ncc([N+](=O)[O-])s2)nc1[N+](=O)[O-] [Compound 95, 3-nitro-1-(5-nitro-2-thiazolyl)pyrazole-4-carboxamide] | – | – | – | – | – | – | – | MIC (Escherichia coli): > 50 µg/mL; MIC (Mycoplasma gallisepticum): 12.5 µg/mL (≈ 44 µM); MIC (Pasteurella multocida): 3.12 µg/mL (≈ 11 µM); MIC (Salmonella dublin): 25 µg/mL (≈ 88 µM); MIC ([1]; Staphylococcus aureus, SP.1130): < 1.56 µg/mL; MIC (Vibrio coli 3811; 3811): < 1.56 µg/mL; MIC (Streptococcus sp. 80; Streptococcus, SP.80): 50 µg/mL (≈ 176 µM)
CSCCn1cc(C(N)=O)c([N+](=O)[O-])n1 [Compound 97, 1-[2-(methylthio)ethyl]-3-nitropyrazole-4-carboxamide] | > 50 µg/mL | 25 µg/mL (≈ 109 µM) | 25 µg/mL (≈ 109 µM) | > 50 µg/mL | > 50 µg/mL | 12.5 µg/mL (≈ 54.3 µM) | > 50 µg/mL | –
NC(=O)c1cn(CCOC(=O)c2ccc(Cl)c(Cl)c2)nc1[N+](=O)[O-] [Compound 98, 2-(4-carbamoyl-3-nitropyrazol-1-yl)ethyl 3,4-dichlorobenzoate] | – | – | – | – | – | – | – | responders at 60 mg/kg (Salmonella typhimurium): 100%
NC(=O)c1cn(CCOC(=O)c2cccc(Cl)c2)nc1[N+](=O)[O-] [Compound 99, 2-(4-carbamoyl-3-nitropyrazol-1-yl)ethyl m-chlorobenzoate] | – | – | – | – | – | – | – | responders at 60 mg/kg (Salmonella typhimurium): 80%
Cn1cc(-c2nnc(N)s2)c([N+](=O)[O-])n1 [Compound 102, 2-amino-5-(1-methyl-3-nitro-4-pyrazolyl)-1,3,4-thiadiazole] | 12.5 µg/mL (≈ 55.3 µM) | 12.5 µg/mL (≈ 55.3 µM) | – | 12.5 µg/mL (≈ 55.3 µM) | 6.25 µg/mL (≈ 27.6 µM) | 12.5 µg/mL (≈ 55.3 µM) | 50 µg/mL (≈ 221 µM) | chicks protected of the 5-bird treated group (Salmonella typhimurium; salmonella challenge): at least three chicks of the 5-bird treated group

Reference: US4145554A, “3-Nitropyrazole derivatives” (Eli Lilly and Company, priority 1977, dated 1979)
